Biological target: T1, recombinant human NAE enzyme (Homo sapiens, UniProt Q8TBC4)
T1 construct: His (N); made in house; host or cells: Sf9 insect cells (baculovirus, Bac-to-Bac), purified on Ni-NTA
T1 sequence (Q8TBC4 1-463): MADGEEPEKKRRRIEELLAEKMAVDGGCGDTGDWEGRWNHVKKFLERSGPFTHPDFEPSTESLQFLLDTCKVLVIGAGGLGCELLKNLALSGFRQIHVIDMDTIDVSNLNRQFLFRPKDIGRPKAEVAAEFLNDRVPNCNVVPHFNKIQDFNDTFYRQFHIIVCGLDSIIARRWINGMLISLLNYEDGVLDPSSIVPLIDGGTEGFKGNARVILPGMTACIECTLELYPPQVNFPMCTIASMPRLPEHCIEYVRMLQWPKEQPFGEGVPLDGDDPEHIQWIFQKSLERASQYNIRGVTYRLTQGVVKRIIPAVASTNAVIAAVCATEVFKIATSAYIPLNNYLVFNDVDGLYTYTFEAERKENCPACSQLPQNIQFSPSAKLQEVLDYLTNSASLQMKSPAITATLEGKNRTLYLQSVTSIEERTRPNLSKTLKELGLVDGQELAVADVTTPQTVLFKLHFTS
T1 sequence (Q13564 1-534 partner): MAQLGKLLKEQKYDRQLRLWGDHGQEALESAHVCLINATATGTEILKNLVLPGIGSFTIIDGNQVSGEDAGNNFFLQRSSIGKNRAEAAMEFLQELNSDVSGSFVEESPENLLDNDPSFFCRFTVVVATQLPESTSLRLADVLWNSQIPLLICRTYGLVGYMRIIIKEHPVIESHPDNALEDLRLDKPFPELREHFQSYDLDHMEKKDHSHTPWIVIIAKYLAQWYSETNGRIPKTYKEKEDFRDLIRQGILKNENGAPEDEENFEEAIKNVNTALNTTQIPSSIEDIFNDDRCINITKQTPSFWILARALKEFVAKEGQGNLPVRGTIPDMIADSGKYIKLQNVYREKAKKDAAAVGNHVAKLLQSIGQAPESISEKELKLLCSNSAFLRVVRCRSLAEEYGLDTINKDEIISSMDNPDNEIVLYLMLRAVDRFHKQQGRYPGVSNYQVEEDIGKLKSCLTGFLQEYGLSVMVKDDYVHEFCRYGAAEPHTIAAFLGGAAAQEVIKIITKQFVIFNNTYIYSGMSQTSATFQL
Assay: Nedd8-Activating Enzyme (NAE) HTRF Assay
Format: biochemical
Conditions: threshold statement: less than or equal to 100 nM; 20 μM ATP, 90 minutes at 24° C.
Method: Following manufacturer instructions, baculoviruses were generated with the Bac-to-Bac Expression System (Invitrogen) for the following proteins: untagged NAEα (APPBP1; NP_003896.1), N-terminally His-tagged NAEβ (UBE1C; NP_003959.3), untagged SAEα (SAE1; NP_005491.1), N-terminally His-tagged SAEβ (UBA2; NP_005490.1), N-terminally His-tagged murine UAE (UBE1X; NP_033483). NAEα/His-NAEβ and SAEα/His-SAEβ complexes were generated by co-infection of Sf9 cells, which were harvested after 48 hours. His-mUAE was generated by single infection of Sf9 cells and harvested after 72 hours. Expressed proteins were purified by affinity chromatography (Ni—NTA agarose, Qiagen) using standard buffers. Ubc12 (UBE2M; NP_003960.1), Ubc9 (UBE2I; NP_003336.1), Ubc2 (UBE2A; NP_003327.2) were subcloned into pGEX (Pharmacia) and expressed as N-terminally GST tagged fusion proteins in E. coli. Expressed proteins were purified by conventional affinity chromatography using standard buffers. Nedd8 (NP_006147), Sumo-1 (NP_003343) and Ubiquitin (with optimized codons) were subcloned into pFLAG-2 (Sigma) and expressed as N-terminally Flag tagged fusion proteins in E. coli. Expressed proteins were purified by conventional chromatography using standard buffers. Nedd8-Activating Enzyme (NAE) HTRF Assay. The NAE enzymatic reaction totaled 50 μL and contained 50 mM HEPES (pH 7.5), 0.05% BSA, 5 mM MgCl2, 20 μM ATP, 250 μM GSH, 0.01 μM Ubc12-GST, 0.075 μM Nedd8-Flag and 0.28 nM recombinant human NAE enzyme. The enzymatic reaction mixture, with and without compound inhibitor, was incubated at 24° C. for 90 minutes in a 384-well plate before termination with 25 μL of Stop/Detection buffer (0.1M HEPES pH 7.5, 0.05% Tween20, 20 mM EDTA, 410 mM KF, 0.53 nM Europium-Cryptate labeled monoclonal anti-FLAG M2 antibody (CisBio International) and 8.125 μg/mL PHYCOLINK goat anti-GST allophycocyanin (XL-APC) antibody (Prozyme)). After incubation for 3 hours at 24° C., quantification of the FRET was performed on the Analyst™ HT 96.384 (Molecular Devices).

| IC50 | Compound |
| --- | --- |
| ≤ 0.1 µM | NS(=O)(=O)OC[C@@H]1C[C@@H](n2ccc3c(NCc4c(F)cccc4F)ncnc32)C[C@@H]1O [Compound I-15, ((1S,2S,4R)-4-{4-[(2,6-dif1uorobenzyl)amino]-7H-pyrrolo[2,3-d]pyrimidin-7-yl}-2-hydroxycyclopentyl)methyl sulfamate] |
| ≤ 0.1 µM | C#Cc1cn([C@@H]2C[C@@H](COS(N)(=O)=O)[C@@H](O)C2)c2ncnc(C)c12 [Compound I-44, [(1S,2S,4R)-4-(5-ethynyl-4-methyl-7H-pyrrolo[2,3-d]pyrimidin-7-yl)-2-hydroxycyclopentyl]methyl sulfamate] |
| ≤ 0.1 µM | NS(=O)(=O)OC[C@@H]1C[C@@H](n2ccc3c(N[C@@H]4CCc5c(Cl)cccc54)ncnc32)C[C@@H]1O [Compound I-63, [(1S,2S,4R)-4-(4-{[(1R)-4-chloro-2,3-dihydro-1H-inden-1-yl]amino}-7H-pyrrolo[2,3-d]pyrimidin-7-yl)-2-hydroxycyclopentyl]methyl sulfamate] |
| ≤ 0.1 µM | NS(=O)(=O)/C=C/[C@@H]1C[C@@H](n2ccc3c(N[C@H]4CCc5ccccc54)ncnc32)C[C@@H]1O [Compound I-73, (E)-2-((1S,2S,4R)-4-{4-[(1S)-2,3-dihydro-1H-inden-1-ylamino]-7H-pyrrolo[2,3-d]pyrimidin-7-yl}-2-hydroxycyclopentyl)ethylenesulfonamide] |
| ≤ 0.1 µM | NS(=O)(=O)OC[C@@H]1C[C@@H](n2ccc3c(NCc4ccc(C(F)(F)F)cc4)ncnc32)C[C@@H]1O [Compound I-8, [(1S,2S,4R)-2-hydroxy-4-(4-{[4-(trifluoromethyl)benzyl]amino}-7H-pyrrolo-[2,3-d]pyrimidin-7-yl)cyclopentyl]methyl sulfamate] |
| ≤ 0.1 µM | CC1(C)C[C@@H](Nc2ncnc3c2ccn3[C@@H]2C[C@@H](COS(N)(=O)=O)[C@@H](O)C2)c2ccccc21 (single isomer, unassigned) [Compound I-21] |
| ≤ 0.1 µM | NS(=O)(=O)OC[C@@H]1C[C@@H](n2ccc3c(NCC4CCCCC4)ncnc32)C[C@@H]1O [Compound I-29, ((1S,2S,4R)-4-{4-[(cyclohexylmethyl)amino]-7H-pyrrolo[2,3-d]pyrimidin-7-yl)-2-hydroxycyclopentyl)methyl sulfamate] |
| ≤ 0.1 µM | NS(=O)(=O)OC[C@@H]1C[C@@H](n2cc(F)c3c(N[C@H]4CCc5ccccc54)ncnc32)C[C@@H]1O [Compound I-68, ((1S,2S,4R)-4-{4-[(1S)-2,3-dihydro-1H-inden-1-ylamino]-5-fluoro-7H-pyrrolo[2,3-d]pyrimidin-7-yl}-2-hydroxycyclopentyl)methyl sulfamate] |
| ≤ 0.1 µM | CO[C@@H]1Cc2ccccc2[C@H]1Nc1ncnc2c1ccn2[C@@H]1C[C@@H](COS(N)(=O)=O)[C@@H](O)C1 [Compound I-72, [(1S,2S,4R)-2-hydroxy-4-(4-{[(1R,2R)-2-methoxy-2,3-dihydro-1H-inden-1-yl]amino}-7H-pyrrolo[2,3-d]pyrimidin-7-yl)cyclopentyl]methyl sulfamate] |
| ≤ 0.1 µM | Nc1ncnc2c1ccn2[C@@H]1C[C@@H](COS(N)(=O)=O)[C@@H](O)C1 [Compound I-18, [(1S,2S,4R)-4-(4-amino-7H-pyrrolo[2,3-d]pyrimidin-7-yl)-2-hydroxycyclopentyl]methyl sulfamate] |
| ≤ 0.1 µM | CC[C@@H]1Cc2ccccc2[C@@H]1Nc1ncnc2c1ccn2[C@@H]1C[C@@H](COS(N)(=O)=O)[C@@H](O)C1 [Compound I-83, [(1S,2S,4R)-4-(4-{[(1R,2R)-2-ethyl-2,3-dihydro-1H-inden-1-yl]amino}-7H-pyrrolo[2,3-d]pyrimidin-7-yl)-2-hydroxycyclopentyl]methyl sulfamate] |
| ≤ 0.1 µM | CO[C@H]1Cc2ccccc2[C@H]1Nc1ncnc2c1ccn2[C@@H]1C[C@@H](COS(N)(=O)=O)[C@@H](O)C1 [Compound I-52, [(1S,2S,4R)-2-hydroxy-4-(4-{[(1R,2S)-2-methoxy-2,3-dihydro-1H-inden-1-yl]-amino}-7H-pyrrolo[2,3-d]pyrimidin-7-yl)cyclopentyl]methyl sulfamate] |
| ≤ 0.1 µM | C[C@H]1Cc2ccccc2[C@H]1Nc1ncnc2c1ccn2[C@@H]1C[C@@H](COS(N)(=O)=O)[C@@H](O)C1 [Compound I-82, [(1S,2S,4R)-2-hydroxy-4-(4-{[(1S,2S)-2-methyl-2,3-dihydro-1H-inden-1-yl]amino}-7H-pyrrolo[2,3-d]pyrimidin-7-yl)cyclopentyl]methyl sulfamate] |
| ≤ 0.1 µM | CC1(C)C[C@H](Nc2ncnc3c2ccn3[C@@H]2C[C@@H](COS(N)(=O)=O)[C@@H](O)C2)c2ccccc21 (single isomer, unassigned) [Compound I-14] |
| ≤ 0.1 µM | CO[C@H]1CCc2ccccc2[C@H]1Nc1ncnc2c1ccn2[C@@H]1C[C@@H](COS(N)(=O)=O)[C@@H](O)C1 [Compound I-85, [(1S,2S,4R)-2-hydroxy-4-(4-{[(1R,2S)-2-methoxy-1,2,3,4-tetrahydronaphthalen-1-yl]amino}-7H-pyrrolo[2,3-d]pyrimidin-7-yl)cyclopentyl]methyl sulfamate] |
| ≤ 0.1 µM | COC[C@@H]1Cc2ccccc2[C@@H]1Nc1ncnc2c1ccn2[C@@H]1C[C@@H](COS(N)(=O)=O)[C@@H](O)C1 [Compound I-79, [(1S,2S,4R)-2-hydroxy-4-(4-{[(1R,2R)-2-(methoxymethyl)-2,3-dihydro-1H-inden-1-yl]amino}-7H-pyrrolo[2,3-d]pyrimidin-7-yl)cyclopentyl]methyl sulfamate] |
| ≤ 0.1 µM | NS(=O)(=O)CC[C@@H]1C[C@@H](n2ccc3c(N[C@H]4CCc5ccccc54)ncnc32)C[C@@H]1O [Compound I-59, 2-((1S,2S,4R)-4-{4-[(1S)-2,3-dihydro-1H-inden-1-ylamino]-7H-pyrrolo[2,3-d]-pyrimidin-7-yl}-2-hydroxycyclopentyl)ethanesulfonamide] |
| ≤ 0.1 µM | NS(=O)(=O)OCC[C@@H]1C[C@@H](n2ccc3c(N[C@H]4CCc5ccccc54)ncnc32)C[C@@H]1O [Compound I-76, 2-((1S,2S,4R)-4-{4-[(1S)-2,3-dihydro-1H-inden-1-ylamino]-7H-pyrrolo[2,3-d]pyrimidin-7-yl}-2-hydroxycyclopentyl)ethyl sulfamate] |
| ≤ 0.1 µM | CC(C)(Cc1ncnc2c1ccn2[C@@H]1C[C@@H](COS(N)(=O)=O)[C@@H](O)C1)c1ccccc1 [Compound I-50, {(1S,2S,4R)-2-hydroxy-4-[4-(2-methyl-2-phenylpropyl)-7H-pyrrolo[2,3-d]-pyrimidin-7-yl]cyclopentyl}methyl sulfamate] |
| ≤ 0.1 µM | NS(=O)(=O)OC[C@@H]1C[C@@H](n2ccc3c(NCc4ccccc4)ncnc32)C[C@@H]1O [Compound I-49, {(1S,2S,4R)-4-[4-(benzylamino)-7H-pyrrolo[2,3-d]pyrimidin-7-yl]-2-hydroxycyclopentyl}methyl sulfamate] |
| ≤ 0.1 µM | COc1ccccc1CNc1ncnc2c1ccn2[C@@H]1C[C@@H](COS(N)(=O)=O)[C@@H](O)C1 [Compound I-43, ((1S,2S,4R)-2-hydroxy-4-{4-[(2-methoxybenzyl)amino]-7H-pyrrolo[2,3-d]-pyrimidin-7-yl)cyclopentyl)methyl sulfamate] |
